{"source": "patent US10271539B2", "about": "“Assay-ready frozen cell and method for minimizing variability in the performance thereof” (LE CENTRE NATIONALE DE LA RECHERCHE SCIENTIFIQUE (CNRS), priority 2013, dated 2019)", "key": {"KJL-2 cells [1]": {"tested_on": "KJL-2 cells", "assay": "TNFα-induced firefly luciferase (FL) / Renilla luciferase (RL) reporter gene assay (DUAL-GLO) in vinblastin-treated, frozen and thawed KJL-2 cells", "assay_type": "cell-based, human", "conditions": "for FL/RL ratio: scavengers/chelators of reactive oxygen species, cells treated 10 minutes", "description": "The X-axis is TNFα, ng/ml.\nKJL-2 cells were used in all experiments (carried out to date). […] In order to reduce the formation of ice crystals and subsequent cell lysis, all experimental groups were frozen using the alcohol-free Biocison controlled freezing system that cools cells at approximately 1.0° C./minute."}, "KJL-2 cells [2]": {"tested_on": "KJL-2 cells", "assay": "Staurosporine-induced apoptosis: FL and RL activity in KJL-2 cells", "assay_type": "cell-based, human", "conditions": "10 micromolar staurosporine, over 24 hours", "description": "Briefly, untreated cells or cells treated with vinblastin as described in WO 2004/039990; US 2004/0235157 and U.S. Pat. No. 7,470,536 were treated for 10 minutes with substances that inhibit the formation of reactive oxygen species and/or scavengers of reactive oxygen species either alone or concomitantly with vinblastin treatment. The cells were then frozen using the cryopreservative medium described in WO 2004/039990; US 2004/0235157 and U.S. Pat. No. 7,470,536 with or without substances that inhibit the formation of reactive oxygen species and/or scavengers of reactive oxygen species. KJL-2 cells were used in all experiments (carried out to date). All groups were treated with vinblastin using the same procedure as described in WO 2004/039990; US 2004/0235157 and U.S. Pat. No. 7,470,536. In order to reduce the formation of ice crystals and subsequent cell lysis, all experimental groups were frozen using the alcohol-free Biocison controlled freezing system that cools cells at approximately 1.0° C./minute. All assays were performed using DUAL-GLO (Promega, Catalogue No 2920) that allows Firefly luciferase (FL) and Renilla luciferase (RL) activity to be determined sequentially in the same well of a microtiter plate."}, "[3]": {"conditions": "pre-treatment of cells with proteasome inhibitor"}, "[4]": {"conditions": "pre-treatment of cells with protease inhibitor and addition to the freezing medium"}, "[5]": {"conditions": "substances that reduce H2O2 (COX inhibitors)"}, "[6]": {"conditions": "NAC both during treatment with vinblastin and in the cryopreservative medium"}}, "note": "Entries after “also recorded” stand apart in the source; their conditions may differ. Where a SMILES comes first, the peptide text is derived from it. [ ]: non-standard residue; d: D form. The star is where a group is joined. Sta = CC(C)C[C@H](N)[C@@H](O)CC(=O)O; Isovaleryl = CC(C)CC(=O)*; Cbz = O=C(OCc1ccccc1)*"}
{"molecule": "CC(C)C[C@@H](C=O)NC(=O)[C@H](CC(C)C)NC(=O)[C@H](CC(C)C)NC(=O)OCc1ccccc1", "note": "[MG-132] (Cbz-Leu-Leu-Leu-aldehyde)", "values": [{"measurement": "FL activity", "setting": "KJL-2 cells [1]; [3]", "value": "did not increase FL activity significantly; also recorded: reduced FL activity"}]}
{"molecule": "OC[C@@H](O)[C@@H](O)[C@H](O)[C@H](O)CO", "note": "[Mannitol]", "values": [{"measurement": "FL/RL ratio", "setting": "KJL-2 cells [1]", "value": "without effect"}]}
{"molecule": "Cl.N", "note": "[ammonium chloride]", "values": [{"measurement": "FL activity", "setting": "KJL-2 cells [1]; [4]", "value": "did not significantly increase FL activity"}]}
{"molecule": "CS(=O)(=O)c1ccc(C2=C(c3ccccc3)C(=O)OC2)cc1", "note": "[VIOXX, rofecoxib]", "values": [{"measurement": "FL activity", "setting": "KJL-2 cells [1]; [5]", "value": "increased FL activity marginally"}]}
{"molecule": "CN[C@@H]1C[C@H]2O[C@@](C)([C@@H]1OC)n1c3ccccc3c3c4c(c5c6ccccc6n2c5c31)C(=O)NC4", "note": "[staurosporine]", "values": [{"measurement": "FL activity", "setting": "KJL-2 cells [2]", "value": "inhibits FL activity progressively"}, {"measurement": "RL activity", "setting": "KJL-2 cells [2]", "value": "remains fairly constant"}]}
{"molecule": "O=S(=O)(O)c1cc(O)c(O)c(S(=O)(=O)O)c1", "note": "[Tiron]", "values": [{"measurement": "FL/RL ratio", "setting": "KJL-2 cells [1]", "value": "without effect"}]}
{"molecule": "O=S(=O)(F)Cc1ccccc1", "note": "[PMSF]", "values": [{"measurement": "FL activity", "setting": "KJL-2 cells [1]; [4]", "value": "did not significantly increase FL activity"}]}
{"molecule": "CC[C@H](C)[C@H](NC(=O)[C@H]([C@@H](C)CC)N(C)C(C)=O)C(=O)N[C@H](C(=O)N[C@@H](CC(C)C)C(=O)[C@@]1(C)CO1)[C@@H](C)O", "note": "[epoxomicin]", "values": [{"measurement": "FL activity", "setting": "KJL-2 cells [1]; [3]", "value": "did not increase FL activity significantly"}]}
{"molecule": "CC(=O)N[C@@H](CSC(=O)[C@]1([C@@H](O)C(C)C)NC(=O)[C@H](C)[C@@H]1O)C(=O)O", "note": "[lactacystin]", "values": [{"measurement": "FL activity", "setting": "KJL-2 cells [1]; [3]", "value": "did not increase FL activity significantly"}]}
{"molecule": "CC(C)CC(=O)N[C@H](C(=O)N[C@H](C(=O)N[C@@H](CC(C)C)[C@@H](O)CC(=O)N[C@@H](C)C(=O)N[C@@H](CC(C)C)[C@@H](O)CC(=O)O)C(C)C)C(C)C", "note": "[Pepstatin A] (Isovaleryl-VV[Sta]A[Sta]-OH)", "values": [{"measurement": "FL activity", "setting": "KJL-2 cells [1]; [4]", "value": "did not significantly increase FL activity"}]}
{"molecule": "Oc1ncnc2[nH]ncc12", "note": "[allopurinol]", "values": [{"measurement": "FL values (RLU)", "setting": "KJL-2 cells [1]; 100 μM allopurinol in cryopreservative, frozen one day or 5 days, vs control, FIGS. 1A and 1B", "value": "significantly increases FL values"}, {"measurement": "intra-vial (vial to vial) variation in normalized RLU and normalized fold induction", "setting": "KJL-2 cells [1]; 100 μM allopurinol, relative to cells treated with vinblastin alone, FIGS. 3A-4B", "value": "reduced intra-vial variation"}, {"measurement": "form of the TNFα dose response curve", "setting": "KJL-2 cells [1]; 100 μM allopurinol, TNFα of 10 ng/ml and higher, FIGS. 4A and 4B", "value": "some alteration of the form of the TNFα dose response curve"}]}
{"molecule": "CC1(C)CC(O)CC(C)(C)N1[O]", "note": "[TEMPOL]", "values": [{"measurement": "FL/RL ratio", "setting": "KJL-2 cells [1]", "value": "without effect"}]}
{"molecule": "N[C@@H](CCC(=O)N[C@@H](CS)C(=O)NCC(=O)O)C(=O)O", "note": "[GSH, glutathione SH]", "values": [{"measurement": "vial-to-vial variation in normalized RLU and normalized fold induction", "setting": "KJL-2 cells [1]; 1 mM GSH, FIGS. 5A and 5B", "value": "appeared to be effective in reducing vial-to-vial variation"}, {"measurement": "vial-to-vial variation in normalized RLU and normalized fold induction", "setting": "KJL-2 cells [1]; 1 mM GSH, FIGS. 5A and 5B, listed as glutathione SH", "value": "higher degree of variability in FL readings"}]}
{"molecule": "CC(=O)Oc1ccccc1C(=O)O", "note": "[Acetylsalicylic acid, acetylsalicylic acid]", "values": [{"measurement": "FL activity", "setting": "KJL-2 cells [1]; [5]", "value": "increased FL activity marginally"}]}
{"molecule": "NCCNCCNCCNCCN", "note": "[tetra ethylenepentamine]", "values": [{"measurement": "FL/RL ratio", "setting": "KJL-2 cells [1]", "value": "without effect"}]}
{"molecule": "CC(=O)N[C@@H](CSSC[C@H](N)C(=O)O)C(=O)O", "note": "[N-acetylcystine]", "values": [{"measurement": "vial-to-vial variation in normalized RLU and normalized fold induction", "setting": "KJL-2 cells [1]; 5 mM NAC, FIGS. 6A and 6B", "value": "superior to GSH treatment in reducing vial-to-vial variation"}, {"measurement": "lot-to-lot variation in the performance of assay-ready frozen cells", "setting": "KJL-2 cells [1]; [6]", "value": "markedly reducing"}, {"measurement": "vial-to-vial variation in the performance of assay-ready frozen cells", "setting": "KJL-2 cells [1]; [6]", "value": "markedly reducing"}]}
{"molecule": "MNTMPyP", "values": [{"measurement": "FL/RL ratio", "setting": "KJL-2 cells [1]", "value": "without effect"}]}
